Results reported in patent publication US7696383B2 (Solvay Pharmaceuticals B.V., priority 2007, dated 2010).
Marks after values point to notes of the source that are not given here. Values belong to the compound of their own block, whether it stands above or below them.

Key:
[1] = tested on: dopamine, noradrenaline and serotonine reuptake; experiment: In vitro pharmacology, summary in words over binding and reuptake inhibition
Description: (§1) In vitro affinity for neurotransmitter reuptake sites were either obtained by CEREP (128, rue Danton, 92500 Rueil-Malmaison, France) or at Solvay Pharmaceuticals B. V. (C. J. van Houtenlaan 36, 1381 CP Weesp, The Netherlands), using well documented procedures. Measured were affinities for serotonin (Tatsumi, 1999), norepinephrine (Pacholczyk, 1991) and dopamine reuptake sites (Pristupa, 1994).
(§2) Subsequently, the synaptosomes were exposed to [^3H]-serotonin ([…] final concentration) for 10 min. [^3H]-Serotonine uptake was stopped by filtration with a harvester and the non-incorporated radioactivity was removed by extensive washing. Filter plates with synaptosomes were dehydrated, and the amount of [^3H]-serotonin present was determined by Betaplate liquid scintillation counting.
In vitro functional inhibition of [^3H]-norepinephrine reuptake: male rats (Wistar Hsd/Cpb: WU; 175-200 g) were decapitated, the hypothalamus was rapidly removed and a crude synaptosomal fraction was prepared. […] [^3H]-Norepinephrine uptake was stopped by filtration with a harvester and the non-incorporated radioactivity was removed by an extensive washing programme. The filterplates with synaptosomes were dehydrated and the amount of [^3H]-norepinephrine present was determined by Betaplate liquid scintillation counting. […]

in vivo = conditions: for AUC0→∞: Tend = ∞
Description: Proteins in 100 μl plasma were precipitated with acetonitrile, and 5 μl samples of the obtained solutions were analyzed. Complete brains were homogenized and centrifuged, and 10 μl samples of the supernatant were analyzed.
Liquid Chromatography-Tandem Mass Spectrometry (LC-MS/MS) was performed using a Sciex API4000 LC-MS/MS. Samples were quantified using extracted calibration samples, treated the same as the study samples, in the range of 1-5000 ng/ml and 5.0-5000 ng/brain for plasma and brain samples, respectively. Compound peak area was used for quantification. Calibration curves were fitted to the model y=A+Bx+Cx^2 (y is the peak area of the analyte, x is the nominal calibration level in ng/ml (plasma) or ng/g (brain), A is the intercept, B is the slope and C is the description of the curvature). 1/x^2 weighing was used. LC-MS/MS system performance was monitored using a reference solution injected at standard intervals. […] The Lower Limit Of Quantification (LLOQ) was established at 1.00 ng/ml and 5.00 ng/brain, for plasma and brain samples, respectively. Values below the LLOQ were given as best estimate. Reversed phase HPLC was performed using gradient elution by a Hypersil BDS C18 100×4.6 mm 3 μm analytical column, at 45° C. and with a flow of 1.00 ml/min: […]

[2] = Reduction of venlafaxine N-oxide in the human colon model TIM2; format: in vitro ADME; conditions: within 2 hours after dosing
Description: The human colon model TIM2 (TNO Intestinal Model 2): this model is a dynamic model for the human large intestine that simulates in vivo conditions. It is an artificial digestive system that has been validated by many studies (Minekus, 1999).
Suspended in 1% methylcellulose, venlafaxine-N-oxide (1 mg) was inserted into the lumen (120 ml) of the TIM2 model (see above, Minekus, 1999). Samples from the lumen and the dialysate (the latter being a model for the vascular bed of the intestines) were taken at various time intervals, and analyzed for venlafaxine-N-oxide and venlafaxine.

dopamine reuptake sites = dopamine reuptake sites (Homo sapiens, UniProt Q01959); experiment: In vitro affinity for dopamine reuptake sites; format: binding; conditions: for Ki: read-out: Dopamine binding pKi (converted)
Source text: as §1

[3H]-dopamine reuptake = target: T1, [3H]-dopamine reuptake (Rattus norvegicus, UniProt P23977); experiment: In vitro functional inhibition of [3H]-dopamine reuptake, striatum synaptosomes; format: biochemical; conditions: for IC50: read-out: Dopamine inhibition pIC50 (converted)
T1 construct: the striatum was rapidly removed and a crude synaptosomal fraction (P2) was prepared; from tissue; host or cells: rat striatum, crude P2 synaptosomal fraction
Description: In vitro functional inhibition of [^3H]-dopamine reuptake: male rats (Wistar Hsd/Cpb: WU; 175-200 g) were decapitated; the striatum was rapidly removed and a crude synaptosomal fraction (P2) was prepared by homogenization and centrifugation. Synaptosomes were pre-incubated in absence or presence of the test compound for 15 min at 37° C., in a medium containing the monoamine oxidase inhibitor pargyline (7×10^−6 M) (Coyle, 1969). Subsequently, [^3H]-dopamine (2×10^−7 M final concentration) was added and incubation was continued for 10 min. [^3H]-dopamine uptake was stopped by filtration and the synaptosomes were washed four times with phosphate buffered saline. The amount of [^3H]-dopamine in the synaptosomes was determined by Betaplate liquid scintillation counting. […] Inhibition of DA uptake was performed in duplicate.

[3] = target: norepinephrine reuptake sites (Homo sapiens, UniProt P23975); experiment: In vitro affinity for norepinephrine reuptake sites; format: binding; conditions: for Ki: read-out: Noradrenaline binding pKi (converted)
[4] = target: T2, [3H]-norepinephrine reuptake (Rattus norvegicus, UniProt Q63380); experiment: In vitro functional inhibition of [3H]-norepinephrine reuptake, hypothalamus synaptosomes; format: biochemical; conditions: for IC50: read-out: Noradrenaline inhibition pIC50 (converted)
T2 construct: the hypothalamus was rapidly removed and a crude synaptosomal fraction was prepared; from tissue; host or cells: rat hypothalamus, crude synaptosomal fraction
Description: In vitro functional inhibition of [^3H]-norepinephrine reuptake: male rats (Wistar Hsd/Cpb: WU; 175-200 g) were decapitated, the hypothalamus was rapidly removed and a crude synaptosomal fraction was prepared. Synaptosomes were pre-incubated in absence or presence of the test compound for 10 min at 37° C., in a medium containing the MAO inhibitor pargyline (7 μM). Subsequently, the synaptosomes were exposed to [^3H]-norepinephrine ([…] final concentration) for 15 min. [^3H]-Norepinephrine uptake was stopped by filtration with a harvester and the non-incorporated radioactivity was removed by an extensive washing programme. The filterplates with synaptosomes were dehydrated and the amount of [^3H]-norepinephrine present was determined by Betaplate liquid scintillation counting. […] Test compounds, 10^−2 M dissolved in DMSO, were diluted in Krebs Ringer buffer to test concentrations of 10^−8-10^−5 M. Further experimental details were as described (Coyle, 1969).

serotonin reuptake sites = serotonin reuptake sites (Homo sapiens, UniProt P31645); experiment: In vitro affinity for serotonin reuptake sites; format: binding; conditions: for Ki: read-out: Serotonine binding pKi (converted)
[3H]-serotonin reuptake = target: T3, [3H]-serotonin reuptake (Rattus norvegicus, UniProt P31652); experiment: In vitro functional inhibition of [3H]-serotonin reuptake, cerebral hemisphere synaptosomes; format: biochemical; conditions: for IC50: read-out: Serotonine inhibition pIC50 (converted)
T3 construct: the cerebral hemispheres were rapidly removed, and a P2-synaptosomal fraction was prepared; from tissue; host or cells: rat cerebral hemispheres, P2 synaptosomal fraction
Description: as §2

[5] = male, NMRI, mouse, in vivo, iv, 1 mg/kg
[6] = male, NMRI, mouse, in vivo, po, 10 mg/kg
[7] = male, NMRI, mouse, plasma, iv, 1 mg/kg
[8] = male, NMRI, mouse, plasma, po, 10 mg/kg
[9] = mice, labelled compound given 1.0 mg/kg i.v., 0.5 h
[10] = mice, labelled compound given 1.0 mg/kg i.v., 1 h
[11] = mice, labelled compound given 1.0 mg/kg i.v., 3 h
[12] = mice, labelled compound given 1.0 mg/kg i.v., 7 h
[13] = mice, labelled compound given 1.0 mg/kg i.v., 24 h
[14] = mice, labelled compound given 10 mg/kg p.o., 0.5 h
[15] = mice, labelled compound given 10 mg/kg p.o., 1 h
[16] = mice, labelled compound given 10 mg/kg p.o., 3 h
[17] = mice, labelled compound given 10 mg/kg p.o., 7 h
[18] = mice, labelled compound given 10 mg/kg p.o., 24 h

T1 sequence (P23977 whole entry): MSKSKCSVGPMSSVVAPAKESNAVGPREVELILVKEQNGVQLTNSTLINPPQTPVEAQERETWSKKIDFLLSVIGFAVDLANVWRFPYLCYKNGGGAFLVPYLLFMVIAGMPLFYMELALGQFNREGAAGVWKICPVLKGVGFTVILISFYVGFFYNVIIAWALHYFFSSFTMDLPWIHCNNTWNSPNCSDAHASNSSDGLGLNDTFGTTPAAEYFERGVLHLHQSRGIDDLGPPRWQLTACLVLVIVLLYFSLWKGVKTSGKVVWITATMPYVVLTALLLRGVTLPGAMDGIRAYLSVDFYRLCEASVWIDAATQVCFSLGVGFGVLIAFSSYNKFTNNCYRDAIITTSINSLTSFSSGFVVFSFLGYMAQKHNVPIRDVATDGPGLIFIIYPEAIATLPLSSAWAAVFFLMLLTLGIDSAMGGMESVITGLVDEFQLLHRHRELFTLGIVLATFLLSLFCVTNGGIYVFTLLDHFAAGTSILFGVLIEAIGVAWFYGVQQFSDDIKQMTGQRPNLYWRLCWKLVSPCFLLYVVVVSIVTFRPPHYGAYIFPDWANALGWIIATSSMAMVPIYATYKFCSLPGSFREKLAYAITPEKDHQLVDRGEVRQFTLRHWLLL
T2 sequence (Q63380 1-617): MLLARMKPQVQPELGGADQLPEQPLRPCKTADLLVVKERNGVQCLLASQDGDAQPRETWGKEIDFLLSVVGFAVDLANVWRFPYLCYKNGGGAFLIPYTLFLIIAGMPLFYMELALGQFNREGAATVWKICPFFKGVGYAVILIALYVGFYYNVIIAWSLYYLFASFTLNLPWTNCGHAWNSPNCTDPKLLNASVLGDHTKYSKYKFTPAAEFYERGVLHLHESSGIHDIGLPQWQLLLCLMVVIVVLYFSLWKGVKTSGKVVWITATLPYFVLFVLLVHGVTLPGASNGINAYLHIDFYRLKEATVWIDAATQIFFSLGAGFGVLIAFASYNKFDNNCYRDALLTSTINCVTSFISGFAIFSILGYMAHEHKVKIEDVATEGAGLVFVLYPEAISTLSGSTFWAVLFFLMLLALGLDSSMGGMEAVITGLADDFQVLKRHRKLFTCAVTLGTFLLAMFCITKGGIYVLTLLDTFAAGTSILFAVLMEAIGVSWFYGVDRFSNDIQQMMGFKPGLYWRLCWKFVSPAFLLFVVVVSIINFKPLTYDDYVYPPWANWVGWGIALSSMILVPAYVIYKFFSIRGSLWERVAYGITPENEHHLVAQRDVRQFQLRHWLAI
Chain of serotonin reuptake sites (P31645 whole entry): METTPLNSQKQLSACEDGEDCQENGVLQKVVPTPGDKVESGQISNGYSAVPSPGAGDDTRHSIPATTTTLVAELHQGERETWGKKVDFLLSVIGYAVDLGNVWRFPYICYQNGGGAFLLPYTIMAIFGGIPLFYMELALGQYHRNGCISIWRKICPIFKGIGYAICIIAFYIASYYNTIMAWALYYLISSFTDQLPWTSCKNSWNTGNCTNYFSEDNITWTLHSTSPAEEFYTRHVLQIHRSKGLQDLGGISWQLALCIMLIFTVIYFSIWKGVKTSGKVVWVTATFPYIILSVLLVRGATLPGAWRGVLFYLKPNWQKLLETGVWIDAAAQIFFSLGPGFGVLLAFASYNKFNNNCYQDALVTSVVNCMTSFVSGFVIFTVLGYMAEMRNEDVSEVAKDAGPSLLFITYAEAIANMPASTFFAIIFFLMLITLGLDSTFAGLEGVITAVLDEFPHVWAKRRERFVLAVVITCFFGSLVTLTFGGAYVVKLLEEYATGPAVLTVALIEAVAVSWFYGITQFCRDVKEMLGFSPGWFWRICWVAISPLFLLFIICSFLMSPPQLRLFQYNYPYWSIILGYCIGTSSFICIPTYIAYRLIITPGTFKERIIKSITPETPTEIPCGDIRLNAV
Chain of dopamine reuptake sites (Q01959 whole entry): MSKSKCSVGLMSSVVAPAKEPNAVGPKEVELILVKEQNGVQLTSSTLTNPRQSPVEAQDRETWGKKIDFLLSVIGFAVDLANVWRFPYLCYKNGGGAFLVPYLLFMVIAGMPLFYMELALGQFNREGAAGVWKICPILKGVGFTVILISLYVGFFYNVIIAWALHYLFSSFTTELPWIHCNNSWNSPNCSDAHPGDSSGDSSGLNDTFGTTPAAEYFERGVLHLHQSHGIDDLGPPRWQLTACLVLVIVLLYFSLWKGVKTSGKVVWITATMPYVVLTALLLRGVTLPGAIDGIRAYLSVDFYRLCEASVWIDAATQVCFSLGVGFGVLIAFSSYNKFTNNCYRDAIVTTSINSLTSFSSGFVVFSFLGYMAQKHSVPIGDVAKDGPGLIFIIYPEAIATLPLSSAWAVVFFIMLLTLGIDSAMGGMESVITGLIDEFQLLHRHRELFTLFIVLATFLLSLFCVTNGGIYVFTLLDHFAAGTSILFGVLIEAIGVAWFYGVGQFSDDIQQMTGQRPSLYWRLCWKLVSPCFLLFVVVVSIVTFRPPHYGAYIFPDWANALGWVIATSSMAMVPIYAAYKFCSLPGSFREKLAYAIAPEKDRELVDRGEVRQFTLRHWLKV
T3 sequence (P31652 whole entry): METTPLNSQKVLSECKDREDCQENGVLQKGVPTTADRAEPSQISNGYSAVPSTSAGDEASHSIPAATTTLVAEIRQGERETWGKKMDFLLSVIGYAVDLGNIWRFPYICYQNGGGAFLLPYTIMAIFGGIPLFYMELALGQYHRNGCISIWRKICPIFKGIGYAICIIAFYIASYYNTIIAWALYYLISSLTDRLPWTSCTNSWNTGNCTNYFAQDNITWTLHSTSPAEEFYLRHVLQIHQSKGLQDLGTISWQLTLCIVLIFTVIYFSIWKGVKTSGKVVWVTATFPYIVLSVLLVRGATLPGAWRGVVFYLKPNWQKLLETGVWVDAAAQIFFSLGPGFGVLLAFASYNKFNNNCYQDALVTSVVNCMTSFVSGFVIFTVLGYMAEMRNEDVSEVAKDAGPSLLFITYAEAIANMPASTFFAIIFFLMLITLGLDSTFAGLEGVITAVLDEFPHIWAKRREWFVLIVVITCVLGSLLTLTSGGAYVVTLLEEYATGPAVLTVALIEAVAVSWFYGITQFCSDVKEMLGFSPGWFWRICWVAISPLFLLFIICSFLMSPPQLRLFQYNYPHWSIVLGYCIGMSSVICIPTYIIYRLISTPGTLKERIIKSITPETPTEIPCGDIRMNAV
Chain of norepinephrine reuptake sites (P23975 whole entry): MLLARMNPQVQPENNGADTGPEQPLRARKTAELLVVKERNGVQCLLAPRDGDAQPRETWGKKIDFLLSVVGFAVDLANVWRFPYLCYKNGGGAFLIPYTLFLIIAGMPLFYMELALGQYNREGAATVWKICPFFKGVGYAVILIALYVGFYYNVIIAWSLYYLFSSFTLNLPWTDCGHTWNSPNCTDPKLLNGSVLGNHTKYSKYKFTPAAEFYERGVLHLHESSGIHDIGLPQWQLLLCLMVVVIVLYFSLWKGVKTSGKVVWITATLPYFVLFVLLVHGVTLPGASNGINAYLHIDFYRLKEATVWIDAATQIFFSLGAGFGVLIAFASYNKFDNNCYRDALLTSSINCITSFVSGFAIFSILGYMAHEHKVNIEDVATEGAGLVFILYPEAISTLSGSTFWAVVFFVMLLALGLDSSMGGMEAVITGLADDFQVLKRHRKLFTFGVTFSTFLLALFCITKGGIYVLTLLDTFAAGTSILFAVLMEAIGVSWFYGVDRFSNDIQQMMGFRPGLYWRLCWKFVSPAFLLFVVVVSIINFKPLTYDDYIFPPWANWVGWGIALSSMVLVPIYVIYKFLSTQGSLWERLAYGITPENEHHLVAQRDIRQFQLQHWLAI

SMILES: CN(C)CC(c1ccc(O)cc1)C1(O)CCCCC1 (racemic) [O-desmethylvenlafaxine, (R,S)-1-[2-(dimethylamino)-1-(4-hydroxyphenyl)ethyl]-cyclohexanol]
In vitro activity, in words [1]: equipotent with venlafaxine

SMILES: COc1ccc(C(CN(C)C)C2(O)CCCCC2)cc1 (racemic) [Venlafaxine, (R,S)-1-(2-(Dimethylamino)-1-(4-methoxyphenyl)ethyl)cyclohexanol, reference compound]
Kp (in vivo; [5]): 3.1
half-life (in vivo; [5]): 48 min
Kp (in vivo; [6]): 3.4
half-life (in vivo; [6]): 54 min
AUC (in vivo; [7]): 194 ng·h/mL
AUC(0-inf) (in vivo; [7]): 195 ng·h/mL
Cmax (in vivo; [7]): 408 ng/mL
Tmax (in vivo; [7]): 0 min
Vd (in vivo; [7]): 6.2 L/kg
clearance (in vivo; [7]): 85.6 mL/min/kg
bioavailability (in vivo; male, NMRI, mouse, plasma, oral, 10 mg/kg): 48.7%
AUC (in vivo; [8]): 943 ng·h/mL
AUC(0-inf) (in vivo; [8]): 948 ng·h/mL
Cmax (in vivo; [8]): 630 ng/mL
Tmax (in vivo; [8]): 12 min
N-oxide found in brain (in vivo; mice, after administration of venlafaxine): only traces
In vitro activity, in words [1]: most potent as inhibitor of serotonine reuptake

SMILES: COc1ccc(C(C[N+](C)(C)[O-])C2(O)CCCCC2)cc1 (racemic) [Venlafaxine-N-oxide, (R,S)-1-[2-oxido-(dimethylamino)-1-(4-methoxyphenyl)ethyl]-cyclohexanol]
Brain/plasma ratio (in vivo; i.v. 1 mg/kg): 0.1
bioavailability (in vivo; i.v., 10 mg/kg p.o. against 1 mg/kg i.v.): 23.3%
Conversion in vivo after administration (in vivo; mice): reduced to the parent compound
Time after which venlafaxine concentrations in plasma and brain exceed those of the N-oxide (in vivo; mice, after i.v. administration of venlafaxine-N-oxide): Approximately one hour
Factor by which venlafaxine concentrations in plasma and brain are higher than those of the N-oxide (in vivo; mice, after oral administration of venlafaxine-N-oxide): 10 to 100
Plasma concentration of Venlafaxine (in vivo; [9]): 22 ng/mL
Plasma concentration of Venlafaxine-N-oxide (in vivo; [9]): 173 ng/mL
Plasma concentration of Venlafaxine (in vivo; [10]): 8.0 ng/mL
Plasma concentration of Venlafaxine-N-oxide (in vivo; [10]): 39 ng/mL
Plasma concentration of Venlafaxine (in vivo; [11]): 0.59 ng/mL
Plasma concentration of Venlafaxine-N-oxide (in vivo; [11]): 7.3 ng/mL
Plasma concentration of Venlafaxine (in vivo; [12]): 0 ng/mL
Plasma concentration of Venlafaxine-N-oxide (in vivo; [12]): 0.16 ng/mL
Plasma concentration of Venlafaxine (in vivo; [13]): 0 ng/mL
Plasma concentration of Venlafaxine-N-oxide (in vivo; [13]): 0 ng/mL
Plasma concentration of Venlafaxine (in vivo; [14]): 72 ng/mL
Plasma concentration of Venlafaxine-N-oxide (in vivo; [14]): 840 ng/mL
Plasma concentration of Venlafaxine (in vivo; [15]): 117 ng/mL
Plasma concentration of Venlafaxine-N-oxide (in vivo; [15]): 183 ng/mL
Plasma concentration of Venlafaxine (in vivo; [16]): 77 ng/mL
Plasma concentration of Venlafaxine-N-oxide (in vivo; [16]): 38 ng/mL
Plasma concentration of Venlafaxine (in vivo; [17]): 3.3 ng/mL
Plasma concentration of Venlafaxine-N-oxide (in vivo; [17]): 0.75 ng/mL
Plasma concentration of Venlafaxine (in vivo; [18]): 0.63 ng/mL
Plasma concentration of Venlafaxine-N-oxide (in vivo; [18]): 0.12 ng/mL
Brain penetration (in vivo; mouse, in vivo): hardly penetrates the brain
VD (in vivo; mouse, in vivo, iv, 1 mg/kg): 3 L/kg
clearance (in vivo; mouse, in vivo, iv, 1 mg/kg): 46.1 mL/min/kg
t1/2 (in vivo; plasma, i.v. 1 mg/kg): 48 min
AUC0→end (in vivo; plasma, i.v. 1 mg/kg, Tend = 7 hrs): 361.6 ng·h/mL
AUC0→∞ (in vivo; plasma, i.v. 1 mg/kg): 361.7 ng·h/mL
Cmax (C0) (in vivo; plasma, i.v. 1 mg/kg, extrapolated to T0 (time zero)): 1205.2 (C0)* ng/ml
Cmax (in vivo; plasma, p.o. 10 mg/kg): 1040.0 ng/mL
t1/2 (in vivo; plasma, p.o. 10 mg/kg): 186 min
AUC0→end (in vivo; plasma, p.o. 10 mg/kg, Tend = 24 hrs): 841.6 ng·h/mL
AUC0→∞ (in vivo; plasma, p.o. 10 mg/kg): 842.2 ng·h/mL
Reduction to venlafaxine in TIM2 [2]: nearly quantitatively reduced to venlafaxine
Dopamine binding pKi (dopamine reuptake sites): <4.5
Dopamine inhibition pIC50 ([3H]-dopamine reuptake): 4.5
Noradrenaline binding pKi [3]: <4.5
Noradrenaline inhibition pIC50 [4]: 4.9
Serotonine binding pKi (serotonin reuptake sites): 5.5
Serotonine inhibition pIC50 ([3H]-serotonin reuptake): 4.9

Ki (dopamine reuptake sites): > 31.6 µM
IC50 ([3H]-dopamine reuptake): > 31.6 µM
Ki [3]: > 31.6 µM
IC50 [4]: 39.8 µM
Ki (serotonin reuptake sites): 7.94 µM
IC50 ([3H]-serotonin reuptake): 20 µM
SMILES: COc1ccc([C@H](C[N+](C)(C)[O-])C2(O)CCCCC2)cc1 [(R)-venlafaxine-N-oxide, R-Venlafaxine N-oxide]

IC50 ([3H]-dopamine reuptake): 5.01 µM
IC50 [4]: 0.398 µM
SMILES: CN(C)C[C@@H](c1ccc(O)cc1)C1(O)CCCCC1 [(R)—O-desmethyl-venlafaxine, O-desmethyl-R-Venlafaxine, reference compound]

Ki (dopamine reuptake sites): > 31.6 µM
IC50 ([3H]-dopamine reuptake): > 31.6 µM
Ki [3]: > 31.6 µM
IC50 [4]: > 31.6 µM
Ki (serotonin reuptake sites): 10 µM
IC50 ([3H]-serotonin reuptake): 39.8 µM
SMILES: C[N+](C)([O-])C[C@@H](c1ccc(O)cc1)C1(O)CCCCC1 [(R)—O-desmethyl-venlafaxine-N-oxide, O-Desmethyl-R-venlafaxine N-oxide]

Ki (dopamine reuptake sites): > 31.6 µM
IC50 ([3H]-dopamine reuptake): > 31.6 µM
Ki [3]: > 31.6 µM
IC50 [4]: > 31.6 µM
Ki (serotonin reuptake sites): 6.31 µM
IC50 ([3H]-serotonin reuptake): 15.8 µM
SMILES: COc1ccc([C@@H](C[N+](C)(C)[O-])C2(O)CCCCC2)cc1 [(S)-venlafaxine-N-oxide, S-Venlafaxine N-oxide]

IC50 ([3H]-dopamine reuptake): 10 µM
IC50 [4]: 0.398 µM
SMILES: CN(C)C[C@H](c1ccc(O)cc1)C1(O)CCCCC1 [(S)—O-desmethyl-venlafaxine, O-desmethyl-S-Venlafaxine, reference compound]

Ki (dopamine reuptake sites): > 31.6 µM
IC50 ([3H]-dopamine reuptake): > 31.6 µM
Ki [3]: > 31.6 µM
IC50 [4]: > 31.6 µM
Ki (serotonin reuptake sites): 12.6 µM
IC50 ([3H]-serotonin reuptake): 25.1 µM
SMILES: C[N+](C)([O-])C[C@H](c1ccc(O)cc1)C1(O)CCCCC1 [(S)—O-desmethyl-venlafaxine-N-oxide, O-desmethyl-S-venlafaxine N-oxide]
